# Data as given in patent US7390826B2, “Inhibitors of animal cell motility and growth” (The Board of Trustees of The University of Illinois, priority 2002, dated 2008).
# “Also recorded” adds a separate entry of the source. Like-named read-outs stand apart in the source and are kept apart here.
# Key:
# Staphylococcus aureus = assay: bacterial growth (absorbance at 600 nm); assay type: cell-based; settings: 50 μM; for absorbance at 600 nm: mean ± SEM
# Experimental: (§1) Reported values are the mean ±SEM for triplicate samples.
# (§2) Bacterial growth: Staphylococcus aureus or Escherichia coli (DH5a strain) were grown in Luria-Bertani (LB) medium for 12 hours at 37° C. in a shaking incubator. Dilutions into fresh LB medium with 0.1% DMSO (solvent carrier control) or 50 μM compound 1 were made to an absorbance at 600 nm (A600) of about 0.1. Bacteria were incubated at 37° C. with shaking during the experiment, and A600 measurements were made at set time intervals during log growth phase until the plateau phase was reached.
# [1] = test system: Escherichia coli (DH5a strain); assay: bacterial growth (absorbance at 600 nm); assay type: cell-based; settings: 50 μM
# Experimental: as §1, §2
# MDCK cell monolayers = assay: filamentous actin staining (rhodamine-phalloidin) of wounded MDCK monolayers; assay type: cell-based, canine; settings: 50 μM; 12 hours after wounding
# Experimental: Although formation of perimarginal actin bundles is not required for wound closure in this system, these actin bundles may help to distribute force in the first row of cells from actively protruding and moving cells to less-actively motile cells, thus making the closure process more regular and uniform than it would be otherwise.
# Filamentous actin staining: MDCK cell mono-layers on glass coverslips-were fixed with 3.7% formaldehyde in PBS 12 hours after wounding. Cells were permeabilized with 0.1% (w/v) TRITONO X-100 in PBS, stained with 50 nM tetramethylrhodamine-conjugated phalloidin in PBS, and washed twice with PBS. Coverslips were mounted in 90% glycerol/10% ten strength PBS with 2 mg/mL p-phenylenediamine on glass slides and then examined by fluorescence microscopy.
# MDCK cells = assay: Trypan blue exclusion cell viability assay; assay type: cell-based, canine
# Source text: Cells also remain normal in morphology with both cell-substratum and cell-cell adhesion intact after treatment with compound 1.
# [2] = test system: Madin-Darby canine kidney (MDCK) cell monolayers; assay: scrape-wound closure assay in MDCK cell monolayers; assay type: cell-based; settings: for IC50: Canis lupus familiaris, MDCK, 12 h
# Source text: A method of determining the ability of a compound to inhibit or accelerate cell motility is a scrape-wound closure assay using cultured mammalian epithelial cell monolayers. Mechanical scraping of the epithelial monolayer induces cell sheet migration into the resulting gap, a phenomenon characteristic of wounded epithelia and mechanistically related to normal epithelial movements during embryonic morphogenesis (A. Jacinto et al., Nat. Cell Biol, 3, E117 (2001)). Epithelial cell sheet migration in this method proceeds by a Rac- and phosphoinositide-dependent cell crawling mechanism resembling the motility of other animal cells that move as individuals rather than as cell sheets (G. Fenteany et al., Curr. Biol., 10, 831 (2000)).
# Wound closure in MDCK cell monolayers primarily involves cell spreading and motility rather than proliferation based on observations and treatments that block cell growth without inhibiting closure. However, after closure is complete and the gap is covered, cell division is observed in the former wound area, presumably as part of a homeostatic mechanism to regain the original cell density (M. F. Olson et al., Science, 269, 1270 (1995)). Wound closure involves Rac- and phosphoinositide-dependent actin polymerization and protrusion-driven cell crawling behavior, where force generation for movement is distributed from the wound margin to several rows of cells behind the margin. Accordingly, this method is excellent for determining whether a compound affects cell motility.
# Cell culture conditions: Madin-Darby canine kidney (MDCK) cells (American Type Culture Collection cell line CCL-34) were cultured in Minimum Essential Medium (with Earle's balanced salts, non-essential amino acids, L-glutamine and sodium pyruvate) supplemented with 10% newborn calf serum at 37° C. and 5% carbon dioxide (CO2). Main cultures were grown in either […] tissue culture flasks with medium changes every two days. When cultures were about 75% confluent, cells were passaged by rinsing twice with single strength phosphate buffered saline (PBS) and treating with a solution of 0.05% (w/v) trypsin/0.02% (w/v) ethylenediaminetetraacetic acid (EDTA) in PBS to detach cells from the flasks. After cells were detached, an equal volume of serum-containing medium was added to inhibit the trypsin and cell density was determined using a hemacytometer. Cells were replated following dilution in fresh medium on new tissue culture flasks for continued culture and multiwell tissue culture plates for experiments. No culture used exceeded 15 passages. Experimental cultures were grown in 12-, 24-, 48-, or 96-well tissue culture plates with medium changes every two days.
# Wound closure assay and compound screening: MDCK cells were plated on multiwell tissue culture plates and cultured at 37° C. and 5% CO2 with medium changes every two days until confluent. When the cultures reached confluence, medium was changed again and all experimental treatments were begun a day later. Compounds were solubilized in dimethyl sulfoxide (DMSO) and added with fresh-medium to cell cultures at initial screening concentrations of 10 and 100 μM. Controls consisted of parallel wells to-which DMSO solvent carrier alone was added at the same concentration as that added with experimental treatments (not exceeding 0.1% (v/v)). DMSO alone at this concentration had no detectable effect on the cells. Monolayers were scraped 30 min later with a micropipette and ultramicro tips, allowing small wounds of consistent size to be generated. Progress of wound closure was examined at set time intervals following wounding by microscope, and inhibitory or acceleratory effects on wound closure relative to parallel controls noted. […] Digital images of the wounded monolayers were taken every 2 hours for 18 hours, and then at 30, 36, 54, 60, and 72 hours following wounding. The number of lamellipodia at the wound margin was also counted at these times. […]
structure (smiles),measurement,setting,value
"C/C=C/C(=O)N1C(=O)OC[C@@H]1Cc1ccccc1 [Compound 1, (4S)-3-((E)-2-butenoyl)-4-benzyl-2-oxazolidinone]",inhibition of growth of Staphylococcus aureus (Gram-positive),Staphylococcus aureus,does not inhibit the growth
same,absorbance at 600 nm,Staphylococcus aureus; 0 hours,0.117 ± 0.037
same,absorbance at 600 nm,Staphylococcus aureus; 1 hours,0.160 ± 0.056
same,absorbance at 600 nm,Staphylococcus aureus; 2 hours,0.332 ± 0.130
same,absorbance at 600 nm,Staphylococcus aureus; 3 hours,0.615 ± 0.162
same,absorbance at 600 nm,Staphylococcus aureus; 4 hours,0.937 ± 0.181
same,absorbance at 600 nm,Staphylococcus aureus; 27 hours,3.265 ± 0.196
same,absorbance at 600 nm,Staphylococcus aureus; 31 hours,3.608 ± 0.271
same,inhibition of growth of Escherichia coli (Gram-negative),[1],does not inhibit the growth
same,formation of filamentous actin bundles at wound margin,MDCK cell monolayers,did not affect formation of filamentous actin bundles
same,toxicity at concentrations that inhibit cell migration,MDCK cells,no general toxicity; also recorded: no evidence of toxicity or metabolic distress
same,IC50,[2]; read-out: calculated IC50 for inhibition of wound closure at 12 hours,14 µM
same,IC50,[2]; read-out: log IC50±standard error of log IC50 (converted),14 µM
same,inhibition of cell motility / epithelial cell sheet migration during wound closure,"[2]; MDCK cells, p<0.05",potent inhibitor of cell motility; also recorded: inhibits epithelial cell sheet migration during wound closure
same,inhibition of wound closure in serum-free conditions,[2]; serum-free,inhibited wound closure to a similar degree relative to the control
same,reversibility of inhibition of wound closure,[2]; upon changing to compound-free medium,reversible
